From patent publication US20260356860A1, “2-SUBSTITUTED 3,4A,5,7,8,8A-HEXAHYDRO-4H-THIOPYRANO[4,3-DJPYRIMIDIN-4-ONES FOR WOUND TREATMENT” (priority 2022, published 2026)

Tests used:
[1] = tested on: HEK293 SuperTOPFlash reporter cells, Wnt promoter; assay: Wnt inhibition in HEK293 SuperTOPFlash reporter cells, DMSO vs aqueous GO-HA (FIGS. 1-3); type: cell-based
Procedure: In order to determine the effect of the compounds of Formula (I) on Wnt inhibition, an invitro assay using HEK293 SuperTOPFlash reporter cells, with the Wnt promoter driving a luciferase reporter gene, were utilized. 40,000 HEK293 SuperTOPFlash reporter cells were seeded, per well, in a 48 well plate for 24 hours, prior to administration of serial dilutions of the compounds of Formula (I) to individual wells. Serial dilutions ranging from […] to 1 nM of compounds of Formula (I) were added with or without 50 ng/mL Wnt3α (Time Biosciences) and allowed to incubate with the reporter cells for 18 hours. Reporter cells with no treatment were used as negative control.

bacteria = assay: Bacteriostasis: growth inhibition over the panel of bacteria; type: cell-based; conditions: 72 h
Procedure: In order to assess the log reduction capabilities of compounds of Formula (1), testing was performed on organisms that are found in acute and chronic wounds. Triplicate tubes were prepared for each bacteria using 50 μL of inoculum (about 1×10^6 CFU/mL) which was added to 450 μL of compound solution (compound of Formula (I)) (or 100 μL of inoculum in 900 μL of compound solution), resulting in a final inoculum of about 1×10^5 CFU/mL, as shown in Table 4.
Tubes were mixed with a vortex and then incubated in a shaking incubator at 175 RPM and 35° C. to 37° C.
For Compounds 1, 7, 8, 10, and 18 in Tables 6, 7-A, 7-B, 8, 9, 10-A, 10-B, and 11: The compound solutions were prepared with compound (30 mg), polysorbate 20 (1.6 mL), butylene glycol (1.6 mL), phosphatidyl choline (0.66 g), ethanol (1.6 mL), hydroxypropyl cellulose (0.26 g), and ultra pure water (24.9 mL).
Testing was performed at two time points: 18 to 24 hours, and […].

closed excisional wounds = assay: Closed excisional wound healing study (cosmesis); type: in vivo, Yucatan Miniature Swine; conditions: of 8 wounds
Procedure: The test composition in the closed excisional wound and burn studies for compounds without GO-HA (no GO-HA added) was a mixture with an overall concentration of 0.20 to 0.25 mg/mL of the respective compound in serum formulation as follows: compound (4 mg), butylene glycol (0.80 mL), polysorbate 20 (0.40 mL), ultra pure water (18 mL), and hydroxypropyl cellulose (0.12 g).
The test composition in the closed excisional wound and burn studies for compounds with GO-HA (Compound+GO-HA) was a mixture with an overall concentration of 1.0 mg/mL of the respective compound and 0.5 mg/mL of GO-HA in serum formulation as follows: compound (18 mg), PEG 400 (0.8 mL), GO-HA (9 mg), ultra pure water (18 mL), and hydroxypropyl cellulose (0.12 g).
The frequency of wound creation was once on dosing phase day 1. The frequency of dose administration was once on dosing phase days 1, 3, 5, 7, 9, 11, 13, 15, 17, 19, and 21. Each animal had twelve 5 cm×0.5 cm full thickness fusiform(spindle shaped) wound sites, spaced at least 3 cm apart to the appropriate depth and in a staggered pattern to reduce central cross-sectional wound tension.
Once […] was obtained, each wound was sutured closed using non-absorbable suture, the simple interrupted closure technique is shown in FIG. 13. Each wound had 5 simple interrupted sutures with a 0.5 to 1 cm interval between sutures.
Compounds of Formula (I) and controls were applied directly to the wound site in a generous layer evenly over the sutured wound using a sterile applicator as needed. After application, each wound site was covered with suitable sterile dressing materials.
Dressings were changed every dosing phase day at day 3, 5, 7, 9, 11, 13, 15, 17, 19, and 21, and sutures were removed on dosing phase day 15. After dose administration on each dosing day, the wounds were covered with dressings as described above.
All animals were scheduled to be terminated on dosing phase day 22. At termination, the entire wound site (dose site) was collected separately for each site and included at least 0.5 cm margin skin and a depth below the wound bed. […]

new porcine skin [2] = assay: Max force of healed wound; type: in vivo; conditions: day 21; for Max Force / Max Force, Mean: topical
Procedure: (§1) Additional tests were performed including elasticity (Table 12); max force (Table 13); tensile strength (strain) (Table 14); energy peak (Table 15); rete-ridge formation; and collagen organization (plane polarized light) (FIG. 24) of the healed wound sites, described as follows.
A is saline (control), B is serum formulation control (vehicle), C is GO-HA (vehicle), D is Compound 1; E is Compound 1+GO-HA; F is Compound 8; G is Compound 8+GO-HA; H is Compound 10; and J is Compound 10+GO-HA. Descriptions for saline control, serum formulation control, and GO-HA are as provided above for FIG. 19.
Max Force (N) is the average force required to break/rupture a material. All compounds of Formula (I) tested with or without GO-HA ranged from 18% to 68% improvement in max force compared to the saline control.

new porcine skin [3] = assay: Strain (tensile strength) of healed wound; type: in vivo; conditions: day 21; for Strain (tensile strength) / Strain (tensile strength), Mean: topical
Procedure: as §1
A is saline (control), B is serum formulation (vehicle), C is GO-HA (vehicle), D is Compound 1; E is Compound 1+GO-HA; F is Compound 8; G is Compound 8+GO-HA; H is Compound 10; and J is Compound 10+GO-HA.
Strain (tensile strength) (N/mm^2) is the force required to pull/stretch a material to a breaking point. A 20% improvement over saline considered good. All compounds of Formula (I) tested with or without GO-HA ranged from 36% to 142% improvement in tensile strength compared to the saline control.

| SMILES | IC50 [1] | number of bacteria with inhibited growth (bacteria; test 1) | number of bacteria with inhibited growth (bacteria; test 2) | wounds with improved cosmesis / visible appearance than the control (closed excisional wounds) | Max Force (new porcine skin [2]; individual value 1) | Max Force (new porcine skin [2]; individual value 2) | Max Force (new porcine skin [2]; individual value 3) | Max Force (new porcine skin [2]; individual value 4) | Max Force, Mean (new porcine skin [2]) | Strain (tensile strength) (new porcine skin [3]; individual value 1) | Strain (tensile strength) (new porcine skin [3]; individual value 2) | Strain (tensile strength) (new porcine skin [3]; individual value 3) | Strain (tensile strength) (new porcine skin [3]; individual value 4) | Strain (tensile strength), Mean (new porcine skin [3]) | number of bacteria with inhibited growth (bacteria) | Max Force (new porcine skin [2]; individual value 5) | Strain (tensile strength) (new porcine skin [3]; individual value 5) | improvement in max force compared to the saline control (new porcine skin [2]) | improvement in tensile strength (strain) compared to the saline control (new porcine skin [3]) |
| --- | --- | --- | --- | --- | --- | --- | --- | --- | --- | --- | --- | --- | --- | --- | --- | --- | --- | --- | --- |
| O=c1[nH]c(-c2ccc(B(O)O)cc2)nc2c1CSCC2 [Compound 1, (4-(4-oxo-3,5,7,8-tetrahydro-4H-thiopyrano[4,3-d]pyrimidin-2-yl)phenyl)boronic acid] | 2000 nM | 6 of 7 | 7 of 7 | 7 of 8 | 290.184 N | 278.868 N | 250.554 N | 273.195 N | 273.200 N | 2.568 N/mm^2 | 3.906 N/mm^2 | 10.226 N/mm^2 | 5.738 N/mm^2 | 5.609 N/mm^2 | – | – | – | – | – |
| O=c1[nH]c(-c2ccc(-c3ccc(Br)nc3)cc2)nc2c1CSCC2 [Compound 7, 2-(4-(6-bromopyridin-3-yl)phenyl)-3,5,7,8-tetrahydro-4H-thiopyrano [4,3-d]pyrimidin-4-one] | 5 to 10 nM | – | – | – | – | – | – | – | – | – | – | – | – | – | 4 of 7 | – | – | – | – |
| CC(C)(OCCO)c1ccc(-c2nc3c(c(=O)[nH]2)CSCC3)cc1 [Compound 8, 2-(4-(2-(2-hydroxyethoxy)propan-2-yl)phenyl)-3,5,7,8-tetrahydro-4H-thiopyrano[4,3-d]pyrimidin-4-one] | 5 to 10 nM | – | – | 2 of 8 | 404.094 N | 488.094 N | 273.110 N | 330.413 N | 333.196 N | 7.640 N/mm^2 | 4.427 N/mm^2 | 2.939 N/mm^2 | 6.900 N/mm^2 | 4.964 N/mm^2 | 5 of 7 | 169.61 N | 2.913 N/mm^2 | – | – |
| O=c1[nH]c(-c2ccc(-c3ccc(B(O)O)cc3)cc2)nc2c1CSCC2 [Compound 10, (4′-(4-oxo-3,5,7,8-tetrahydro-4H-thiopyrano[4,3-d]pyrimidin-2-yl)-[1,1′-biphenyl]-4-yl)boronic acid] | – | 7 of 7 | 7 of 7 | 3 of 8 | 406.879 N | 474.825 N | 344.860 N | 335.864 N | 390.607 N | 6.792 N/mm^2 | 11.592 N/mm^2 | 5.862 N/mm^2 | 5.506 N/mm^2 | 7.438 N/mm^2 | – | – | – | 68% | 105% |
| COC(=O)NCCOC(C)(C)c1ccc(-c2nc3c(c(=O)[nH]2)CSCC3)cc1 [Compound 18, methyl (2-((2-(4-(4-oxo-3,5,7,8-tetrahydro-4H-thiopyrano[4,3-d]pyrimidin-2-yl)phenyl)propan-2-yl)oxy)ethyl)carbamate] | – | 14 of 15 | – | – | – | – | – | – | – | – | – | – | – | – | – | – | – | – | – |
